Measured values taken from patent US8748575B2, “Therapeutic peptides” (Combimab, Inc., priority 2010, dated 2014).

How the values were obtained:
[1] = Mouse intestinal secretion assay (suckling mouse assay); format: in vivo; set-up: key to Mouse intestinal secretion assay (suckling mouse): 1+ (lowest activity/potency); ++: Results are graded from 1+ (lowest activity/potency) to 5+ (highest activity/potency); +++: Results are graded from 1+ (lowest activity/potency) to 5+ (highest activity/potency); ++++: Results are graded from 1+ (lowest activity/potency) to 5+ (highest activity/potency); +++++: 5+ (highest activity/potency); conditions: for Mouse intestinal secretion assay (suckling mouse): graded activity/potency
Procedure: A relevant disease model is the suckling mouse model in which STa (5-18) is deposited into the stomach of 3-4 day old mice, and the accumulation of fluid in their intestines is determined gravimetrically (Parkinson et al., 1994). All GCC peptides were formulated to the desired concentration in Dulbecco's PBS (1×, No Ca++, no Mg++) containing […] immediately prior to dosing. Proteinase inhibitors were prepared as stock solutions in PBS and added to dosing solutions by serial dilution, as needed. The dosing solution (50 μL) was delivered into the stomachs of 2-4 day old mice (3 per dosing group) using a plastic tube attached to the needle of a 1 mL tuberculin syringe. After 3 hours, the animals were sacrificed and dissected to determine the individual weights of the intestines and the rest of the carcass, respectively.

[2] = molecular target: T1, GC-C (Mus musculus, UniProt Q3UWA6); assay: Intestinal membrane 125I-STa competitive radioligand binding assay; set-up: key to I-125 binding assay: 1+ (lowest activity/potency); ++: Results are graded from 1+ (lowest activity/potency) to 5+ (highest activity/potency); +++: Results are graded from 1+ (lowest activity/potency) to 5+ (highest activity/potency); ++++: Results are graded from 1+ (lowest activity/potency) to 5+ (highest activity/potency); +++++: 5+ (highest activity/potency); conditions: for I-125 binding assay: graded activity/potency, mouse intestinal membranes
T1 construct: freshly prepared mouse intestine membranes; from tissue; host or cells: mouse intestine (membrane preparation)
T1 sequence (Q3UWA6 20-1072): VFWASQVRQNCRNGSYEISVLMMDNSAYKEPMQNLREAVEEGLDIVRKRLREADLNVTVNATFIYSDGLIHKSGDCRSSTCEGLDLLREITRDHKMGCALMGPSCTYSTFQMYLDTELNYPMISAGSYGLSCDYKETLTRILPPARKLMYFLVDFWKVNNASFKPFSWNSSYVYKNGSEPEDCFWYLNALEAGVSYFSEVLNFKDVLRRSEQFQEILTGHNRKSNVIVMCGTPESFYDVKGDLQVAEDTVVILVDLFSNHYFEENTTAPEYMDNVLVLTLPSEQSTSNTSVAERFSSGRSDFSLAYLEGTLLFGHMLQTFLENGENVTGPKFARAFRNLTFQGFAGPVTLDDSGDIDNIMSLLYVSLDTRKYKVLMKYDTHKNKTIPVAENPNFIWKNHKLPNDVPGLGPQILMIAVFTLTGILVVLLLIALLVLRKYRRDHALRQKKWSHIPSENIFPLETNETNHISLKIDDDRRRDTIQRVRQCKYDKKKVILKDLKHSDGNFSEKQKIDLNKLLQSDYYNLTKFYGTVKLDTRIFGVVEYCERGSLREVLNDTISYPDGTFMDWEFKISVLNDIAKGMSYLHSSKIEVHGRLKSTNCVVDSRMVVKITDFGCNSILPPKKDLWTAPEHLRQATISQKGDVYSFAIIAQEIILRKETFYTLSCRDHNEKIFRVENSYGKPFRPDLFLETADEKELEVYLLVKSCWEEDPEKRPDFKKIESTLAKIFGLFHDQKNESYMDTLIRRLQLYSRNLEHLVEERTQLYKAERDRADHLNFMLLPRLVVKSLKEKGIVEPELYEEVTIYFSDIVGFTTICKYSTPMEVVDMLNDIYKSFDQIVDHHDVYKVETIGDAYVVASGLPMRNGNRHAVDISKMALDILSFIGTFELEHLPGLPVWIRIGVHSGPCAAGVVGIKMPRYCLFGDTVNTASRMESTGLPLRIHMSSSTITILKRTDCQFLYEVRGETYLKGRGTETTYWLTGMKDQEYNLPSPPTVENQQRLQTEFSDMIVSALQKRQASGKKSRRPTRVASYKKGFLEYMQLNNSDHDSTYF
Procedure: Intestinal membrane 1-125 labeled radioligand binding assay. The intestinal membrane radioligand binding assay was used to assess whether a novel compound could displace ^125I-STa from GC-C (Crane et al., 1992). Each analog was analyzed for its ability to displace ^125I-STa from GC-C in a competitive binding assay. ^125I-ST Displaced” was determined by co-incubating STa analogs (10 μM) with 50,000 DPM of ^125I-STa (1-18) in the presence of mouse intestinal membranes. The displacement (n=3) for each analog was determined relative to a vehicle control.
Membranes were prepared from freshly harvested mouse intestines by first washing away the blood or feces with ice-cold Dulbecco's PBS. Washed organs were minced with a single-edged razor blade, followed by homogenization on ice in 50 mM Tris, pH 7.6, containing 1 mM EDTA, 1 mM PMSF, 1 mM DTT. Debris was then removed by a 15 minute centrifugation at 3,000×G and 4° C. The supernatant is then passed through successively smaller needles (18 gauge through 25 gauge) and frozen at −70° C. until used as a tissue homogenate. If intended for use as isolated membranes, the above homogenate was centrifuged (100,000×G) at 4° C. for 1 hour while fresh and the pellet was re-suspended in homogenization buffer.
The assay was performed in 96 well filter plates which were pre-incubated overnight with 200 μl of 0.3% polyethylenimine (w/v) and washed three times by aspiration with 300 μl of Wash Buffer (150 mM NaCl, 20 mM Sodium Phosphate pH=7.2, 1 mM EDTA) immediately before use. Into each well of was added 50 μl of 3× Binding buffer (150 mM Tris-HCl pH=7.6, 1.98 mM Cysteamine, 0.3% Bacitracin, 1350 mM NaCl, 3 mM EDTA), 40 μl of double-distilled water, 10 μl of either double-distilled water or cold ligand (50 uM STa (5-18) in double-distilled water), 10 μl of increasing concentrations (125 DPM/ul to 50,000 DPM/ul) of radiolabeled 125I -STa (1-18) and finally 40 μl (approximately 2 mg protein/ml) of freshly prepared mouse intestine membranes. The plates were then incubated with mixing at 37 C for two hr, washed successively with six 200 μl aliquots of Wash Buffer and aspirated to dryness. The filter bottoms of each well were punched into individual borosilicate tubes and bound radioactivity determined in a gamma counter. Protein content was determined on an aliquot of the mouse intestine membranes used in the Biorad Protein Assay.

[3] = system: T84 cells (GC-C); assay: Intact T84 cell cGMP accumulation assay; format: cell-based, Human; set-up: key to CGMP accumulation assay: 1+ (lowest activity/potency); ++: Results are graded from 1+ (lowest activity/potency) to 5+ (highest activity/potency); +++: Results are graded from 1+ (lowest activity/potency) to 5+ (highest activity/potency); ++++: Results are graded from 1+ (lowest activity/potency) to 5+ (highest activity/potency); +++++: 5+ (highest activity/potency); conditions: for CGMP accumulation assay: graded activity/potency, T84 cells; for activity in the cGMP accumulation assay: FIG. 22, compared to STa peptide
Procedure: The intact T84 cell assay was used to detect the accumulation of cGMP, the product of agonism, upon interaction with a compound (Visweswariah et al., 1992). Human colorectal adenocarcinoma T84 cells were grown to confluence in a 24 well plate using DMEM/F12 medium supplemented with 10% FBS. The media was aspirated from each well and the cells were washed three times with Dulbecco's PBS (1×, no Ca2+ or Mg2+). The cells were then incubated for 30 minutes at 37° C. with 1 mM […] (IBMX) in Optimem medium (no FBS), either with or without potential antagonists. After incubation under these conditions, a 10× concentrated stock of a known GC-C agonist (e.g., STa (5-18)) in PBS was added to each well and the incubation continued for an additional 15 min at 37° C.
The reaction was stopped by the addition of 200 μL of Passive Lysis Buffer (Promega) to each well. The supernatant was removed for cGMP quantitation by RIA using ^125I-labeled cGMP 54 antibody relative to an external cGMP standard curve. The cells were scraped from the surface for protein content determination using a BioRad Protein Assay.

[4] = FIG. 20, compared to ST peptide
[5] = FIG. 21, compared to linaclotide

Substance	activity in the mouse intestinal secretion assay ([1]; FIG. 26, compared to STa)	Mouse intestinal secretion assay (suckling mouse) [1]	activity in the I-125 labeled radioligand binding assay [2, 4]	I-125 binding assay [2]	CGMP accumulation assay [3]	activity in the cGMP accumulation assay ([3]; second experiment)	activity in the mouse intestinal secretion assay ([1]; FIG. 24, compared to linaclotide)	activity in the mouse intestinal secretion assay ([1]; FIG. 25, compared to STa peptide)	activity in the I-125 labeled radioligand binding assay ([2]; FIG. 18, compared to STa)	activity in the I-125 labeled radioligand binding assay ([2]; FIG. 19, compared to linaclotide)	activity in the I-125 labeled radioligand binding assay [2, 5]	activity in the cGMP accumulation assay [3]
H2N Cys Cys Glu Leu Cys Cys Asn Thz Ala Cys Ala Gly Cys Tyr COOH (CCELCCNXACAGCY; not fully specified; non-natural residue Thz; Modified Amino Acid (8)..(8): Xaa8 = Thz = Thiazolidine (4-thiazolidine-2-carboxylic acid), Tzd) [Peptide D]	higher activity than STa	+++++	superior to ST peptide	+++++	+++++	higher than the STa peptide						
H2N Cys Cys Glu Leu Cys Cys Asn Dhp Ala Cys Ala Gly Cys Tyr COOH (CCELCCNXACAGCY; not fully specified; non-natural residue Dhp; Modified Amino Acid (8)..(8): Xaa8 = Dhp = 3,4,-dihydro-Proline, D-Pro 3,4-Dehydroproline) [Peptide A]	higher activity than STa	+++++	superior to ST peptide	+++++	+++++	higher than the STa peptide	better activity than linaclotide	higher activity than the STa peptide	better activity than STa	superior activity compared to linaclotide	superior to linaclotide	higher than the STa peptide
H2N Cys Cys Glu Leu Cys Cys Asn HyPro Ala Cys Ala Gly Cys Tyr COOH (CCELCCNXACAGCY; not fully specified; non-natural hydroxy residue; Modified Amino Acid (8)..(8): Xaa8 = HyPro = Hydroxy-Proline, Hyp, Hydroxyproline) [Peptide C]			comparable to ST peptide	++	+++	lower than the STa peptide					lower than linaclotide	
H2N Cys Cys Glu L-Thr Cys Cys Asn Pro Ala Cys Ala Gly Cys Tyr COOH (H-CCETCCNPACAGCY-OH; not fully specified (bridges); printed as Cys Cys Glu Thr Cys Cys Asn Pro Ala Cys Ala Gly Cys Tyr; cysteine pairing not given here) [Peptide B]	lower activity	+++		++++	+++	lower than the STa peptide			activity comparable to STa			
